Legend:
[1] = target: T1, SCD (Mus musculus, UniProt P13516); assay: Mouse SCD IC50 determination for compounds active in the HTS assay; assay type: biochemical
T1 sequence (P13516 1-355): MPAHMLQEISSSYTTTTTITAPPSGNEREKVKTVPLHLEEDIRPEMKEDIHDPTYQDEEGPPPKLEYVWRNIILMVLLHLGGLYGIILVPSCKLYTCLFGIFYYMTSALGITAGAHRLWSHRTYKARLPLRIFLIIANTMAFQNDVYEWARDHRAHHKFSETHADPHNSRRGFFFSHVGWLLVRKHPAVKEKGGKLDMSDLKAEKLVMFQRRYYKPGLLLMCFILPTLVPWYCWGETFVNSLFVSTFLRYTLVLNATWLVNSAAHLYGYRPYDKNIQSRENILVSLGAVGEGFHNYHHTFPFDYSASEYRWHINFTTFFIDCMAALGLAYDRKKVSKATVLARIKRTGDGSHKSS
Experimental: The compounds are analyzed with an HTS microsomal assay. The activities are defined in terms of % SCD enzyme activity remaining at the selected concentration (e.g., 10 μM) of the test compounds.

[2] = test system: HEPG2; assay: HEPG2 IC50; assay type: cell-based; conditions: Homo sapiens
[3] = target: T2, stearoyl-CoA desaturase (SCD) (Mus musculus, UniProt P13516); assay: HTS microsomal assay of stearoyl-CoA desaturase inhibition using mouse liver microsomes; assay type: biochemical; conditions: % SCD enzyme activity remaining at 10 μM test compound
T2 construct: Reactions are started by adding 2 mg of microsomal protein; from tissue; host or cells: liver microsomes of male ICR mice on a high-carbohydrate, low fat diet
T2 sequence (P13516 1-355): T1 sequence (P13516 1-355)
Experimental: The absence of mitochondrial contamination is enzymatically assessed.
The compounds are analyzed with an HTS microsomal assay.

SMILES	IC50 [1] [nM]	IC50 [2] [nM]	Mouse microsome SCD activity % remaining @ 10 μM [3] [%]
O=C(NCCc1ccccc1)Nc1ccc(N2CCN(C(=O)c3ccccc3C(F)(F)F)CC2)nn1	60	230	15
O=C(Nc1ccc(N2CCN(C(=O)c3ccccc3C(F)(F)F)CC2)nn1)Nc1ccccc1F [1-(2-FLUOROPHENYL)-3-{6-[4-(2-TRIFLUOROMETHYLBENZOYL)PIPERAZIN-1-YL]-PYRIDAZIN-3-YL}UREA]	–	–	73
O=C(NCc1ccc(F)cc1)Nc1ccc(N2CCN(C(=O)c3ccccc3C(F)(F)F)CC2)nn1 [1-(4-FLUOROBENZYL)-3-{6-[4-(2-TRIFLUOROMETHYLBENZOYL)PIPERAZIN-1-YL]-PYRIDAZIN-3-YL}UREA]	70	30	6
O=C(Nc1ccc(F)cc1)Nc1ccc(N2CCN(C(=O)c3ccccc3C(F)(F)F)CC2)nn1 [1-(4-FLUOROPHENYL)-3-{6-[4-(2-TRIFLUOROMETHYLBENZOYL)PIPERAZIN-1-YL]-PYRIDAZIN-3-YL}UREA]	–	–	82
O=C(NCc1ccccc1)Nc1ccc(N2CCN(C(=O)c3ccccc3C(F)(F)F)CC2)nn1 [1-BENZYL-3-{6-[4-(2-TRIFLUOROMETHYLBENZOYL)PIPERAZIN-1-YL]PYRIDAZIN-3-YL}UREA]	40	50	8
CCCCNC(=O)Nc1ccc(N2CCN(C(=O)c3ccccc3C(F)(F)F)CC2)nn1 [1-BUTYL-3-{6-[4-(2-TRIFLUOROMETHYLBENZOYL)PIPERAZIN-1-YL]PYRIDAZIN-3-YL}UREA]	70	210	13
CCCCCNC(=O)Nc1ccc(N2CCN(C(=O)c3ccccc3C(F)(F)F)CC2)nn1 [1-PENTYL-3-{6-[4-(2-TRIFLUOROMETHYLBENZOYL)PIPERAZIN-1-YL]PYRIDAZIN-3-YL}UREA]	10	40	6
CC(NC(=O)Nc1ccc(N2CCN(C(=O)c3ccccc3C(F)(F)F)CC2)nn1)c1ccc(F)cc1 (centres unmarked) [1-[1-(4-Fluorophenyl)ethyl]-3-{6-[4-(2-trifluoromethylbenzoyl)piperazin-1-yl]pyridazin-3-yl}urea]	–	–	45
O=C(NCCCc1ccc(F)cc1)Nc1ccc(N2CCN(C(=O)c3ccccc3C(F)(F)F)CC2)nn1 [1-[3-(4-Fluorophenyl)propyl]-3-{6-[4-(2-trifluoromethylbenzoyl)piperazin-1-yl]pyridazin-3-yl}urea]	1370	350	14
CCOC(=O)CCNC(=O)Nc1ccc(N2CCN(C(=O)c3ccccc3C(F)(F)F)CC2)nn1 [3-(3-{6-[4-(2-TRIFLUOROMETHYLBENZOYL)PIPERAZIN-1-YL]-PYRIDAZIN-3-YL}-UREIDO)PROPIONIC ACID ETHYL ESTER]	2770	5430	18
COC(=O)C(CC(C)C)NC(=O)c1ccc(N2CCN(C(=O)c3ccccc3C(F)(F)F)CC2)nn1 (centres unmarked) [4-METHYL-2-({6-[4-(2-TRIFLUOROMETHYLBENZOYL)PIPERAZIN-1-YL]-PYRIDAZINE-3-CARBONYL}AMINO)PENTANOIC ACID METHYL ESTER]	–	–	69
CC(C)CCNC(=O)c1ccc(N2CCN(C(=O)OC(C)(C)C)CC2)nn1 [4-[6-(3-METHYLBUTYLCARBAMOYL)PYRIDAZIN-3-YL]PIPERAZINE-1-CARBOXYLIC ACID T-BUTYL ESTER]	–	1450	11
CC(C)CCNC(=O)c1ccc(N2CCN(C(=O)c3nnn(Cc4ccccc4)c3C(F)(F)F)CC2)nn1 [6-[4-(1-BENZYL-5-TRIFLUOROMETHYL-1H-[1,2,3]TRIAZOLE-4-CARBONYL)-PIPERAZIN-1-YL]PYRIDAZINE-3-CARBOXYLIC ACID (3-METHYLBUTYL)AMIDE]	–	–	61
CC(C)CCNC(=O)c1ccc(N2CCN(C(=O)c3cnn(C)c3C(F)(F)F)CC2)nn1 [6-[4-(1-METHYL-5-TRIFLUOROMETHYL-1H-PYRAZOLE-4-CARBONYL)PIPERAZIN-1-YL]-PYRIDAZINE-3-CARBOXYLIC ACID (3-METHYLBUTYL)AMIDE]	350	440	15
O=C(NCCc1ccccc1)c1ccc(N2CCN(C(=O)c3ccccc3C(F)(F)F)CC2)nn1 [6-[4-(2-Trifluoromethylbenzoyl)piperazin-1-yl]pyridazine-3-carboxylic acid phenethylamide]	–	–	0
CC(C)CCNC(=O)c1ccc(N2CCN(C(=O)c3c(C(F)(F)F)nnn3Cc3ccccc3)CC2)nn1 [6-[4-(3-BENZYL-5-TRIFLUOROMETHYL-3H-[1,2,3]TRIAZOLE-4-CARBONYL)PIPERAZIN-1-YL]PYRIDAZINE-3-CARBOXYLIC ACID (3-METHYLBUTYL)AMIDE]	–	–	61
CC(C)CCNC(=O)c1ccc(N2CCN(C(=O)C(C)CC(F)(F)F)CC2)nn1 (centres unmarked) [6-[4-(4,4,4-TRIFLUORO-2-METHYLBUTYRYL)PIPERAZIN-1-YL]PYRIDAZINE-3-CARBOXYLIC ACID (3-METHYLBUTYL)AMIDE]	–	–	19
CC(C)CCNC(=O)c1ccc(N2CCN(C(=O)CC(C)C(F)(F)F)CC2)nn1 (centres unmarked) [6-[4-(4,4,4-TRIFLUORO-3-METHYLBUTYRYL)PIPERAZIN-1-YL]PYRIDAZINE-3-CARBOXYLIC ACID (3-METHYLBUTYL)AMIDE]	–	2530	11
CC(C)CCNC(=O)c1ccc(N2CCN(C(=O)CCC(F)(F)F)CC2)nn1 [6-[4-(4,4,4-TRIFLUOROBUTYRYL)PIPERAZIN-1-YL]PYRIDAZINE-3-CARBOXYLIC ACID (3-METHYLBUTYL)AMIDE]	–	–	42
CC(c1ccccc1C(F)(F)F)N1CCN(c2ccc(C(=O)NCCC3CC3)nn2)CC1.Cl (centres unmarked) [6-{4-[1-(2-TRIFLUOROMETHYLPHENYL)ETHYL]PIPERAZIN-1-YL}-PYRIDAZINE-3-CARBOXYLIC ACID (2-CYCLOPROPYLETHYL)AMIDE HYDROCHLORIDE]	–	–	24

Further lines, results first:

IC50 [1] [nM]	IC50 [2] [nM]	Mouse microsome SCD activity % remaining @ 10 μM [3] [%]	SMILES
–	–	37	CC(C)(C)OC(=O)N1CCN(c2ccc(C(=O)NCCC3CC3)nn2)CC1 [4-[6-(2-CYCLOPROPYLETHYLCARBAMOYL)PYRIDAZIN-3-YL]PIPERAZINE-1-CARBOXYLIC ACID T-BUTYL ESTER]
–	–	22	O=C(NCCC1CC1)c1ccc(N2CCN(C(=O)C3CCCCC3)CC2)nn1 [6-(4-CYCLOHEXANECARBONYLPIPERAZIN-1-YL)PYRIDAZINE-3-CARBOXYLIC ACID (2-CYCLOPROPYLETHYL)AMIDE]
–	–	73	O=C(NCCC1CC1)c1ccc(N2CCN(C(=O)C3(O)CC3)CC2)nn1 [6-[4-(1-HYDROXYCYCLOPROPANECARBONYL)PIPERAZIN-1-YL]PYRIDAZINE-3-CARBOXYLIC ACID (2-CYCLOPROPYLETHYL)AMIDE]
–	–	26	CC(C)CCNC(=O)c1ccc(N2CCN(C(=O)C3(C(F)(F)F)CC3)CC2)nn1 [6-[4-(1-TRIFLUOROMETHYLCYCLOPROPANECARBONYL)PIPERAZIN-1-YL]-PYRIDAZINE-3-CARBOXYLIC ACID (3-METHYLBUTYL)AMIDE]
230	210	8	O=C(NCCC1CC1)c1ccc(N2CCN(Cc3ccc(Cl)cc3Cl)CC2)nn1 [6-[4-(2,4-DICHLOROBENZYL)-PIPERAZIN-1-YL]PYRIDAZINE-3-CARBOXYLIC ACID (2-CYCLOPROPYLETHYL)AMIDE]
–	–	36	CCC(CC)C(=O)N1CCN(c2ccc(C(=O)NCCC3CC3)nn2)CC1 [6-[4-(2-ETHYLBUTYRYL)PIPERAZIN-1-YL]PYRIDAZINE-3-CARBOXYLIC ACID (2-CYCLOPROPYLETHYL)AMIDE]
–	–	29	CC(C)CCNC(=O)c1ccc(N2CCN(C(=O)N3CCN(C)CC3)CC2)nn1 [6-[4-(4-METHYLPIPERAZINE-1-CARBONYL)PIPERAZIN-1-YL]PYRIDAZINE-3-CARBOXYLIC ACID (3-METHYLBUTYL)AMIDE]
90	–	12	O=C(NCCC1CC1)c1ccc(N2CCN(C(=O)c3cc(Cl)ccc3C(F)(F)F)CC2)nn1 [6-[4-(5-CHLORO-2-TRIFLUOROMETHYLBENZOYL)PIPERAZIN-1-YL]PYRIDAZINE-3-CARBOXYLIC ACID (2-CYCLOPROPYLETHYL)AMIDE]
–	–	94	O=C(NCCC1CC1)c1ccc(N2CCN(C(=O)c3ccccn3)CC2)nn1 [6-[4-(PYRIDINE-2-CARBONYL)PIPERAZIN-1-YL]PYRIDAZINE-3-CARBOXYLIC ACID (2-CYCLOPROPYLETHYL)AMIDE]
590	–	10	O=C(NCCC1CC1)c1ccc(N2CCN(C(=O)Cc3ccccc3C(F)(F)F)CC2)nn1 [6-{4-[2-(2-TRIFLUOROMETHYLPHENYL)ACETYL]PIPERAZIN-1-YL}PYRIDAZINE-3-CARBOXYLIC ACID (2-CYCLOPROPYLETHYL)AMIDE]
–	–	46	CC(=O)Oc1ccccc1C(=O)N1CCN(c2ccc(C(=O)NCCC3CC3)nn2)CC1 [ACETIC ACID 2-{4-[6-(2-CYCLOPROPYLETHYLCARBAMOYL)PYRIDAZIN-3-YL]-PIPERAZINE-1-CARBONYL}PHENYL ESTER]

Reference: patent US20110021530A1, “PYRIDAZINE DERIVATIVES AND THEIR USE AS THERAPEUTIC AGENTS IN THE TREATMENT OF SKIN DISORDERS” (XENON PHARMACEUTICALS INC., priority 2008, published 2011)
